According to article PMC8445441, “Elucidating the mechanism by which synthetic helper peptides sensitize Pseudomonas aeruginosa to multiple antibiotics” (PLoS Pathogens, 2021):
Where two headings read alike, the source gives them in different places.

Tests used:
P. aeruginosa AUMC-Pa-2 = conditions: strain AUMC-Pa-2; antibiotic + D-11 (MICb/MICbc 64/4)
Outline: (§1)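 Broth microdilution per CLSI in MHB: two-fold drug dilutions mixed with an equal volume of bacterial suspension at approximately 1 × 10^6 CFU/mL, incubated 18 h at 37 °C. MIC was the lowest concentration with no visible growth; triplicate runs.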

P. aeruginosa AUMC-Pa-1 = conditions: strain AUMC-Pa-1; antibiotic + D-11 (MICb/MICbc 128/4)
Outline: as §1

P. aeruginosa HM-214 = conditions: strain HM-214; antibiotic + D-11 (MICb/MICbc 128/4)
Outline: as §1

P. aeruginosa AUMC-Pa-4 = assay: microbe, parasite or virus in culture; conditions: for FICI: antibiotic + D-11 (MICb/MICbc 128/4); for MICac: MIC of the antibiotic in the combination: with D-11 at MICbc 4
Outline: as §1

P. aeruginosa PAO1 = assay: microbe, parasite or virus in culture; conditions: PAO1; for MIC: Pseudomonas aeruginosa, PAO1, 18 h, read-out: MICa: the MIC of antibiotics, S3 Table, antibiotic alone; for FICI / MICac: the MIC for the antibiotic in the combination: S3 Table
Outline: as §1

P. aeruginosa AUMC-Pa-3 = assay: microbe, parasite or virus in culture; conditions: for MIC: Pseudomonas aeruginosa, AUMCPA3, 18 h, read-out: MICa: MIC of the antibiotic; for FICI / MICac: MIC of the antibiotic in the combination: strain AUMC-Pa-3; for FICI: antibiotic + D-11 (MICb/MICbc 128/4); for MICac: MIC of the antibiotic in the combination: with D-11 at MICbc 4, unit not given
Outline: as §1

P. aeruginosa AUMC-Pa-6 = assay: microbe, parasite or virus in culture; conditions: for FICI: antibiotic + D-11 (MICb/MICbc 64/4); for MICac: MIC of the antibiotic in the combination: with D-11 at MICbc 4
Outline: as §1

P. aeruginosa AUMC-Pa-5 = assay: microbe, parasite or virus in culture; conditions: for FICI: antibiotic + D-11 (MICb/MICbc 64/4); for MICac: MIC of the antibiotic in the combination: with D-11 at MICbc 4
Outline: as §1

[1] = test system: clinical P. aeruginosa isolates; assay: microbe, parasite or virus in culture; conditions: Pseudomonas aeruginosa, 18 h, antibiotic alone
Outline: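 Broth microdilution per CLSI in MHB, two-fold drug dilutions mixed with an equal volume of bacteria at about 1 × 10^6 CFU/mL. After 18 h at 37 °C, MIC taken as the lowest concentration with no visible growth; run in triplicate.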

P. aeruginosa PAK = assay: microbe, parasite or virus in culture; design: MICa: MIC of the antibiotic / MICac: MIC of the antibiotic in the combination: unit not given beside the values; conditions: for MIC: Pseudomonas aeruginosa, 18 h, read-out: MICa: MIC of the antibiotic; for FICI / MICac: MIC of the antibiotic in the combination: strain PAK; for FICI: antibiotic + D-11 (MICb/MICbc 64/4); for MICac: MIC of the antibiotic in the combination: with D-11 at MICbc 4, unit not given
Outline: as §1

P. aeruginosa ATCC27853 = assay: microbe, parasite or virus in culture; design: MICa: MIC of the antibiotic / MICac: MIC of the antibiotic in the combination: unit not given beside the values; conditions: for MIC: Pseudomonas aeruginosa, ATCC27853, 18 h, read-out: MICa: MIC of the antibiotic; for FICI / MICac: MIC of the antibiotic in the combination: strain ATCC27853; for FICI: antibiotic + D-11 (MICb/MICbc 32/4); for MICac: MIC of the antibiotic in the combination: with D-11 at MICbc 4, unit not given
Outline: as §1

P. aeruginosa NR-31040 = assay: microbe, parasite or virus in culture; design: MICa: MIC of the antibiotic / MICac: MIC of the antibiotic in the combination: unit not given beside the values; conditions: for FICI: antibiotic + D-11 (MICb/MICbc 128/4); for MICac: MIC of the antibiotic in the combination: with D-11 at MICbc 4
Outline: as §1

P. aeruginosa NR-31041 = assay: microbe, parasite or virus in culture; design: MICa: MIC of the antibiotic / MICac: MIC of the antibiotic in the combination: unit not given beside the values; conditions: for MIC: Pseudomonas aeruginosa, NR31041, 18 h, read-out: MICa: MIC of the antibiotic; for FICI / MICac: MIC of the antibiotic in the combination: strain NR-31041; for FICI: antibiotic + D-11 (MICb/MICbc 64/4); for MICac: MIC of the antibiotic in the combination: with D-11 at MICbc 4, unit not given
Outline: as §1

P. aeruginosa PA14 = assay: microbe, parasite or virus in culture; design: MICa: MIC of the antibiotic / MICac: MIC of the antibiotic in the combination: unit not given beside the values; conditions: for MIC: Pseudomonas aeruginosa, PA14, 18 h, read-out: MICa: MIC of the antibiotic; for FICI / MICac: MIC of the antibiotic in the combination: strain PA14; for FICI: antibiotic + D-11 (MICb/MICbc 128/4); for MICac: MIC of the antibiotic in the combination: with D-11 at MICbc 4, unit not given
Outline: as §1

[2] = strain AUMC-Pa-4, unit not given
[3] = strain AUMC-Pa-6, unit not given
[4] = strain AUMC-Pa-5, unit not given
[5] = read-out: Antibiotic sensibility (MIC) of clinical P. aeruginosa isolate AUMC-Pa-1, strain AUMC-Pa-1
[6] = read-out: Antibiotic sensibility (MIC) of clinical P. aeruginosa isolate AUMC-Pa-2, strain AUMC-Pa-2
[7] = read-out: Antibiotic sensibility (MIC) of clinical P. aeruginosa isolate AUMC-Pa-3, strain AUMC-Pa-3
[8] = read-out: Antibiotic sensibility (MIC) of clinical P. aeruginosa isolate AUMC-Pa-4, strain AUMC-Pa-4
[9] = read-out: Antibiotic sensibility (MIC) of clinical P. aeruginosa isolate AUMC-Pa-5, strain AUMC-Pa-5
[10] = read-out: Antibiotic sensibility (MIC) of clinical P. aeruginosa isolate AUMC-Pa-6, strain AUMC-Pa-6
[11] = read-out: Antibiotic sensibility (MIC) of clinical P. aeruginosa isolate HM-214, strain HM-214
[12] = read-out: Antibiotic sensibility (MIC) of clinical P. aeruginosa isolate NR-31040, strain NR-31040
[13] = read-out: Antibiotic sensibility (MIC) of clinical P. aeruginosa isolate NR-31041, strain NR-31041
[14] = strain NR-31040, unit not given

SMILES: CO[C@H]1/C=C/O[C@@]2(C)Oc3c(C)c(O)c4c(O)c(c5c(nc6cc(C)ccn65)c4c3C2=O)NC(=O)/C(C)=C\C=C\[C@H](C)[C@H](O)[C@@H](C)[C@@H](O)[C@@H](C)[C@H](OC(C)=O)[C@@H]1C [Rifaximin]
- FICI (P. aeruginosa AUMC-Pa-2): 0.094
- FICI (P. aeruginosa AUMC-Pa-1): 0.047
- FICI (P. aeruginosa HM-214): 0.063
- FICI (P. aeruginosa AUMC-Pa-4; strain AUMC-Pa-4): 0.281
- MICa: MIC of the antibiotic (P. aeruginosa AUMC-Pa-4; strain AUMC-Pa-4, antibiotic alone, unit not given): 8
- MICac: MIC of the antibiotic in the combination (P. aeruginosa AUMC-Pa-4; [2]): 2
- MIC (P. aeruginosa PAO1): 16 µM
- FICI (P. aeruginosa PAO1; antibiotic + 2 μM D-11): 0.066
- FICI (P. aeruginosa PAO1; antibiotic + 4 μM D-11): 0.127
- MICac: the MIC for the antibiotic in the combination (P. aeruginosa PAO1; with 2 μM D-11): 0.0625 µM
- MICac: the MIC for the antibiotic in the combination (P. aeruginosa PAO1; with 4 μM D-11): 0.03125 µM
- MIC (P. aeruginosa AUMC-Pa-3): 8 µM
- FICI (P. aeruginosa AUMC-Pa-3): 0.063
- MICac: MIC of the antibiotic in the combination (P. aeruginosa AUMC-Pa-3): 0.25
- FICI (P. aeruginosa AUMC-Pa-6; strain AUMC-Pa-6): 0.313
- MICa: MIC of the antibiotic (P. aeruginosa AUMC-Pa-6; strain AUMC-Pa-6, antibiotic alone, unit not given): 16
- MICac: MIC of the antibiotic in the combination (P. aeruginosa AUMC-Pa-6; [3]): 4
- FICI (P. aeruginosa AUMC-Pa-5; strain AUMC-Pa-5): 0.313
- MICa: MIC of the antibiotic (P. aeruginosa AUMC-Pa-5; strain AUMC-Pa-5, antibiotic alone, unit not given): 32
- MICac: MIC of the antibiotic in the combination (P. aeruginosa AUMC-Pa-5; [4]): 8
- MIC [1, 5]: 32 µM
- MIC [1, 6]: 8 µM
- MIC [1, 7]: 8 µM
- MIC [1, 8]: 8 µM
- MIC [1, 9]: 32 µM
- MIC [1, 10]: 16 µM
- MIC [1, 11]: 8 µM
- MIC [1, 12]: 16 µM
- MIC [1, 13]: 16 µM
- MIC (P. aeruginosa PAK): 16 µM
- FICI (P. aeruginosa PAK): 0.094
- MICac: MIC of the antibiotic in the combination (P. aeruginosa PAK): 0.5
- MIC (P. aeruginosa ATCC27853): 16 µM
- FICI (P. aeruginosa ATCC27853): 0.156
- MICac: MIC of the antibiotic in the combination (P. aeruginosa ATCC27853): 0.5
- FICI (P. aeruginosa NR-31040; strain NR-31040): 0.094
- MICa: MIC of the antibiotic (P. aeruginosa NR-31040; strain NR-31040, antibiotic alone, unit not given): 16
- MICac: MIC of the antibiotic in the combination (P. aeruginosa NR-31040; [14]): 1
- MIC (P. aeruginosa NR-31041): 16 µM
- FICI (P. aeruginosa NR-31041): 0.078
- MICac: MIC of the antibiotic in the combination (P. aeruginosa NR-31041): 0.25
- MIC (P. aeruginosa PA14): > 128 µM
- FICI (P. aeruginosa PA14): 0.094
- MICac: MIC of the antibiotic in the combination (P. aeruginosa PA14): 16

SMILES: COc1cc(Cc2cnc(N)nc2N)cc(OC)c1OC [Trimethoprim]
- FICI (P. aeruginosa AUMC-Pa-2): 0.188
- FICI (P. aeruginosa AUMC-Pa-1): 0.156
- FICI (P. aeruginosa HM-214): 0.281
- MIC (P. aeruginosa AUMC-Pa-4; Pseudomonas aeruginosa, AUMCPA4, 18 h, read-out: MICa: MIC of the antibiotic): > 128 µM
- FICI (P. aeruginosa AUMC-Pa-4; strain AUMC-Pa-4): 0.156
- MICac: MIC of the antibiotic in the combination (P. aeruginosa AUMC-Pa-4; [2]): 16
- MIC (P. aeruginosa PAO1): > 128 µM
- FICI (P. aeruginosa PAO1; antibiotic + 2 μM D-11): 0.188
- FICI (P. aeruginosa PAO1; antibiotic + 4 μM D-11): 0.188
- MICac: the MIC for the antibiotic in the combination (P. aeruginosa PAO1; with 2 μM D-11): 32 µM
- MICac: the MIC for the antibiotic in the combination (P. aeruginosa PAO1; with 4 μM D-11): 16 µM
- MIC (P. aeruginosa AUMC-Pa-3): > 128 µM
- FICI (P. aeruginosa AUMC-Pa-3): 0.094
- MICac: MIC of the antibiotic in the combination (P. aeruginosa AUMC-Pa-3): 16
- MIC (P. aeruginosa AUMC-Pa-6; Pseudomonas aeruginosa, AUMCPA6, 18 h, read-out: MICa: MIC of the antibiotic): > 128 µM
- FICI (P. aeruginosa AUMC-Pa-6; strain AUMC-Pa-6): 0.313
- MICac: MIC of the antibiotic in the combination (P. aeruginosa AUMC-Pa-6; [3]): 64
- MIC (P. aeruginosa AUMC-Pa-5; Pseudomonas aeruginosa, AUMCPA5, 18 h, read-out: MICa: MIC of the antibiotic): > 128 µM
- FICI (P. aeruginosa AUMC-Pa-5; strain AUMC-Pa-5): 0.563
- MICac: MIC of the antibiotic in the combination (P. aeruginosa AUMC-Pa-5; [4]): >128/128
- MIC [1, 5]: > 128 µM
- MIC [1, 6]: > 128 µM
- MIC [1, 7]: > 128 µM
- MIC [1, 8]: > 128 µM
- MIC [1, 9]: > 128 µM
- MIC [1, 10]: > 128 µM
- MIC [1, 11]: > 128 µM
- MIC [1, 12]: > 128 µM
- MIC [1, 13]: > 128 µM
- MIC (P. aeruginosa PAK): > 128 µM
- FICI (P. aeruginosa PAK): 0.188
- MICac: MIC of the antibiotic in the combination (P. aeruginosa PAK): 32
- MIC (P. aeruginosa ATCC27853): > 128 µM
- FICI (P. aeruginosa ATCC27853): 0.250
- MICac: MIC of the antibiotic in the combination (P. aeruginosa ATCC27853): 32
- MIC (P. aeruginosa NR-31040; Pseudomonas aeruginosa, NR31040, 18 h, read-out: MICa: MIC of the antibiotic): > 128 µM
- FICI (P. aeruginosa NR-31040; strain NR-31040): 0.281
- MICac: MIC of the antibiotic in the combination (P. aeruginosa NR-31040; [14]): 64
- MIC (P. aeruginosa NR-31041): > 128 µM
- FICI (P. aeruginosa NR-31041): 0.125
- MICac: MIC of the antibiotic in the combination (P. aeruginosa NR-31041): 16
- MIC (P. aeruginosa PA14): > 128 µM
- FICI (P. aeruginosa PA14): 0.156
- MICac: MIC of the antibiotic in the combination (P. aeruginosa PA14): 32
